Patent US20180042873A1, “NOVEL METHODS” (Aeromics, Inc., priority 2014, published 2018)

How the values were obtained:
[1] = test system: explanted heart from BALB/c mice; assay: Cardiac explant experiment: apoptosis by Annexin V flow cytometry after 8 h Cold Ischemic Storage; set-up: species or system mouse; conditions: 10 μM in Ringer's solution, 8 hours cold storage at 0-4° C.
Protocol: This experiment is a model for determining the extent of apoptosis occurring in an explanted heart from BALB/c mice. Hearts are perfused with Ringer's solution either supplemented with 10 μM of N-[3,5-bis(trifluoromethyl)phenyl]-5-chloro-2-hydroxybenzamide (Compound 1), or without such supplementation. The explanted hearts are then placed in Cold Ischemic Storage (at 0-4° C.) in their respective buffer solutions for 8 hours. The hearts are then photographed and triturated for analysis of apoptosis using Annexin V flow cytometry. Annexin V is used to label phosphatidylserine on the surface of cells, and this is a conventional marker for cells that have undergone apoptosis. […] In contrast, hearts maintained in the APQ4-inhibitor supplemented Ringer's solution show only about 8% apoptotic cells.

[2] = test system: cardiac allograft (BalbC donor heart in B6 recipient); assay: Cardiac allograft rejection model (intraabdominal heterotopic vascularized cardiac transplantation between genetically mismatched mice); type: in vivo, mouse; conditions: for survival after 20 days: BalbC heart into B6, after 20 days; for survival after 50 days: BalbC heart into B6, after 50 days
Protocol: The ability of an APQ inhibitor of the present disclosure to protect against transplant rejection is determined in an intraabdominal heterotopic vascularized cardiac transplantation model between genetically mismatched mice. Four conditions are compared: the use of an APQ4 inhibitor alone, the use of a CTLA4 Ig alone, the combination of an APQ4 inhibitor with a CTLA4 Ig, and a control.
The donor mouse (BalbC, fully genetically mismatched with respect to the recipient mouse which is B6, C57BL/6) is given a 10 mg/kg IP bolus of 2-((3,5-bis(trifluoromethyl)phenyl)carbamoyl)-4-chlorophenyl dihydrogen phosphate in TrisBase 30 minutes prior to surgery.
Before removing the heart, the donor is perfused with Ringer's solution containing 10 μM N-[3,5-bis(trifluoromethyl)phenyl]-5-chloro-2-hydroxybenzamide. After removal from the donor, the heart is stored at 0-4° C. for 8 hours in Ringer's solution containing 10 μM N-[3,5-bis(trifluoromethyl)phenyl]-5-chloro-2-hydroxybenzamide (Cold Ischemic Storage).
30 Minutes prior to surgery, the recipient mouse is given a 10 mg/kg IP bolus of 2-((3,5-bis(trifluoromethyl)phenyl)carbamoyl)-4-chlorophenyl dihydrogen phosphate in TrisBase. The heart is then transplanted into the recipient mouse (B6 mouse) using the vascularized heterotopic cardiac transplantation model. After closing, the recipient mouse receives 10 mg/kg IP injection of 2-((3,5-bis(trifluoromethyl)phenyl)carbamoyl)-4-chlorophenyl dihydrogen phosphate in TrisBase every 6 hours for 5 days.
The recipient mouse (B6) is administered a single dose of Belatacept IP at 10 mg/kg on the day of the transplant surgery as well as a single dose of Belatacept IP at 10 mg/kg 24 hours after surgery.
As a negative control, both the donor and recipient mice receive IP administration of TrisBase with neither an APQ4 inhibitor nor a CTLA4 Ig. Results
The recipient mice are monitored until their hearts stops beating.

Compound | apoptotic cells [1] | survival after 20 days [2] | survival after 50 days [2] | survival from about 60 days through the end of monitoring at 150 days ([2]; about 60 days to 150 days) | survival from about 60 days through the end of monitoring at 120 days ([2]; about 60 days to 120 days)
O=C(Nc1cc(C(F)(F)F)cc(C(F)(F)F)c1)c1cc(Cl)ccc1O [Compound 1, N-[3,5-bis(trifluoromethyl)phenyl]-5-chloro-2-hydroxybenzamide] | about 8% | – | – | – | –
Belatacept [CTLA4 Ig, reference compound] | – | approximately 60% | about 40% | about 13% | –
O=C(Nc1cc(C(F)(F)F)cc(C(F)(F)F)c1)c1cc(Cl)ccc1OP(=O)(O)O [APQ4 inhibitor, 2-((3,5-bis(trifluoromethyl)phenyl)carbamoyl)-4-chlorophenyl dihydrogen phosphate] | – | about 30% | about 10% | – | about 5%
